Source: patent publication US20060205636A1, “Oxytocin as cardiomyogenesis inducer and uses thereof” (priority 2002, published 2006)
“Also recorded” adds a separate entry of the source. Each block holds one compound with its values, some of them ahead of it.

How the values were obtained:
[1] = system: P19 cells; assay: Cardiac differentiation of P19 cell aggregates, scored by beating cell colonies; assay type: cell-based, mouse; conditions: for day by which beating cell colonies were present in all 24 independently growing cultures: aggregates treated 4 days with 10^−7 M OT or 0.5% DMSO, 24-well plate
Text: P19 cells were propagated and differentiated according to the procedures of Rudnicki and McBurney (28), with minor modifications. Undifferentiated cells were propagated in complete medium containing α-modified Eagle's minimal essential medium (α-MEM; GIBCO-BRL Burlington, Ontario, Canada) supplemented with 2.5% heat-inactivated fetal bovine serum, 7.5% heat-inactivated donor bovine serum (Cansera International, Rexdale, Ontario, Canada), and the antibiotics (GIBCO-BRL) penicillin G (50 U/ml) and streptomycin (50 μg/ml). The cultures were maintained at 37° C. in a humidified atmosphere of 5% CO2 and passaged every 2 days. The general protocol used for differentiation of P19 cells is depicted in FIG. 1.
(§1) Briefly, 0.25×10^6 cells were allowed to aggregate for 4 days in non-adhesive bacteriological grade petri dishes (6-cm diameter) containing 5 ml complete medium, in the presence of 0.5% (v/v) DMSO (Sigma Chemical Co., St. Louis, Mo.). At day 2 of aggregation, the inducing culture medium was replenished. At day 4, aggregates were transferred to tissue culture grade vessels (10-cm diameter dishes or 24/48-well plates), and cultured in complete medium in the absence of differentiation-inducing agent. Aggregation was also done in the absence of DMSO, and in the presence of 10^−7 M OT and/or 10^−7 OTA ([d(CH2)5^1,Tyr(Me)^2,Thr^4,Orn^8,Tyr-NH2^9]-vasotocin), both from Peninsula Laboratories Inc. (San Carlos, Calif.). The cell populations were analyzed at days 10-14 of the entire differentiation protocol, at a time cardiac cells normally beat synchronously.
P19 cells were subjected to the cardiac differentiation protocol depicted in Example 1, except that different concentrations of OT were used during the four days of aggregation. At day 4, aggregates were transferred to 24-well plates and scored for the appearance of beating cell colonies. In addition, cells were collected at day 14 for analysis of OTR or OT expression by RT-PCR. Cell aggregates were also treated with RA and/or T3.

[2] = system: P19 cells; conditions: cited from earlier work
[3] = system: OTR; assay: OTR expression in P19 cells (immunocytochemistry, Western blot, RT-PCR); assay type: cell-based, mouse; conditions: for OTR expression (protein and mRNA) after treatment: DMSO 0.5%, OT 10^−7 M or OTA 10^−7 M alone; for early OTR induction (RT-PCR): second day of differentiation protocol, preliminary results
Description: (§2) For immunocytofluorescence studies, cells were grown onto glass coverslips coated with 0.1% gelatin. They were then fixed by 20-min incubation in PBS containing 4% paraformaldehyde, rinsed in PBS and stored at 4° C. in this buffer until used. All subsequent steps of permeabilization, washing and incubation with antibodies were performed at room temperature. Fixed cells were permeabilized for 10 min in PBS containing 0.005% saponin, blocked for 60 min in PBS-BSA-saponin (PBS containing 1% bovine serum albumin and 0.005% saponin), incubated for 45 min with the primary antibody diluted 1/50 and for 45 min with a fluorescein-conjugated swine anti-goat IgG antibody (Biosource International, Camarillo, Calif.) diluted 1/1000. PBS-BSA-saponin was used for washing between incubations and antibodies were diluted in the same buffer but containing 1.5% normal swine serum (Jackson Immuno Research Laboratories Inc., West Grove, Pa.). Coverslips were mounted in PBS containing 50% glycerol, and immediately examined under the microscope. The primary antibodies were all from Santa Cruz Biotechnology, Inc. (Santa Cruz, Calif.) and produced in goat: antibody C-20 against OT receptor (OTR), antibody K-16 against sarcomeric myosin heavy chain (MHC), and antibody N-19 against dihydropyridine receptor-alphal (DHPR-alphal).
Total cellular RNA was extracted with TRIzol® Reagent (Invitrogen Life Technologies, Burlington, Ontario, Canada), and poly(A)^+mRNA was affinity purified from 200 μg of total RNA onto Oligotex® mRNA columns (Qiagen, Mississauga, Ontario, Canada), as per the manufacturers' instructions. First-strand cDNA was synthesized in a final volume of 40 μl containing first-strand buffer, 3 μg of cellular RNA, 4 μl of hexanucleotide primers (Amersham-Pharmacia, Baie d'Urfé, Quebec, Canada), and avian myeloblastosis virus reverse transcriptase (12 units/μg RNA; Invitrogen). First-strand cDNA (5 μl) was then used for PCR amplification with OTR, ANP or GAPDH exon-specific oligonucleotide primers in a Robocycler Gradient 40 thermocycler (Stratagene, La Jolla, Calif.). Sequences of mouse OTR and ANP genes have been described (26, 34). Conditions for RT-PCR analysis of mouse OTR were adapted from Wagner et al. (6, 7). For all PCR studies the number of cycles used was within the linear range of amplification. The OTR sense and antisense primers were respectively the 22-bp 5′-[…]-3′ (SEQ ID NO:9) and the 23-bp 5′-[…]-3′ (SEQ ID NO:10). Amplification was performed over 32 cycles, each involving 1 min at 94° C., 1.5 min at 62° C. and 1.5 min at 72° C., and was terminated by a 5-min final extension at 72° C. The ANP antisense and sense primers were respectively the 24-bp 5′-[…]-3′ (SEQ ID NO:11) and the 20-bp 5′-[…]-3′ (SEQ ID NO:12). Amplification was performed over 25-30 cycles, each involving 1 min at 94° C., 1 min at 65° C. and 3 min at 72° C., and was terminated by a 5-min final extension at 72° C. The amplification of GAPDH mRNA, a constitutively and ubiquitously expressed gene, served as an internal standard for RT-PCR analysis. The 23-bp antisense primer 5′-[…]-3′ (SEQ ID NO:13) and the 23-bp sense primer 5′-[…]-3′ (SEQ ID NO:14) were used. Amplification was performed over 23 cycles, each involving 1 min at 94° C., 1.5 min at 59° C. and 2 min at 72° C.
Cells were collected by scraping, homogenized in sucrose buffer (20 mM Hepes/Tris, pH 7.4, containing 250 mM sucrose and 20 μg/ml of the protease inhibitor phenylmethylsulfonyl fluoride), then centrifuged at 3000 g for 10 min at 4° C. to remove debris. The supernatants were centrifuged at 100 000 g for 45 min at 4° C., and the pellets were resuspended in sucrose buffer for analysis of protein content by a modified Bradford assay (30). […]

[4] = system: ANP mRNA; assay: RT-PCR analysis of ANP gene transcript in P19 cultures; assay type: cell-based, mouse; conditions: for ANP mRNA level compared to undifferentiated cells: day 14 of differentiation
Description: Total cellular RNA was extracted with TRIzol® Reagent (Invitrogen Life Technologies, Burlington, Ontario, Canada), and poly(A)^+mRNA was affinity purified from 200 μg of total RNA onto Oligotex® mRNA columns (Qiagen, Mississauga, Ontario, Canada), as per the manufacturers' instructions. […] Invitrogen). First-strand cDNA (5 μl) was then used for PCR amplification with OTR, ANP or GAPDH exon-specific oligonucleotide primers in a Robocycler Gradient 40 thermocycler (Stratagene, La Jolla, Calif.). Sequences of mouse OTR and ANP genes have been described (26, 34). Conditions for RT-PCR analysis of mouse OTR were adapted from Wagner et al. (6, 7). For all PCR studies the number of cycles used was within the linear range of amplification. The OTR sense and antisense primers were respectively the 22-bp [NT] ID NO:9) and the 23-bp [NT] ID NO:10). […] The ANP antisense and sense primers were respectively the 24-bp [NT] ID NO:11) and the 20-bp [NT] ID NO:12). […] The amplification of GAPDH mRNA, a constitutively and ubiquitously expressed gene, served as an internal standard for RT-PCR analysis. The 23-bp antisense primer [NT] ID NO:13) and the 23-bp sense primer [NT] ID NO:14) were used.

[5] = system: sarcomeric MHC and DHPR-alphal; assay: Immunocytofluorescence of cardiac muscle markers in P19 cells; assay type: cell-based, mouse; conditions: for MHC and DHPR-alphal immunoreactive foci: aggregates treated day 0-4, stained day 14
Description: as §2

[6] = system: P19 cells; assay: Mean diameter of P19 cell aggregates; assay type: cell-based, mouse; conditions: data not shown
Description: as §1

[7] = system: P19 cells; assay: OT production by induced P19 cells (RIA); assay type: cell-based, mouse; conditions: day 14, 4 h in serum-free medium
Description: P19 cells induced with DMSO or OT were cultured until day 14 in absence of inducer. Cells were washed carefully with PBS and incubated for 4 h in serum-free α-MEM supplemented with protease inhibiors (aprotinin, 30 μg/mL and soybean trypsin inhibitor (SBTI), 100 μg/mL). Cells and media were collected, extracted on Sep-Pak C18-cartridges (Waters Canada, Mississauga, Ontario), lyophilized, resuspended in a minimal volume of α-MEM and assayed by RIA as described (8). RIA was also done on undiluted serum combination used for P19 cell culture (1 part of fetal bovine serum and 3 parts of donor bovine serum).

[8] = target: oxytocin receptor (OTR) of P19 mouse embryonal carcinoma cells (mouse) (UniProt P97926); assay: cell-based or functional assay; conditions: scale: cultures with beating colonies
Chain of oxytocin receptor (OTR) of P19 mouse embryonal carcinoma cells (mouse) (P97926 whole entry): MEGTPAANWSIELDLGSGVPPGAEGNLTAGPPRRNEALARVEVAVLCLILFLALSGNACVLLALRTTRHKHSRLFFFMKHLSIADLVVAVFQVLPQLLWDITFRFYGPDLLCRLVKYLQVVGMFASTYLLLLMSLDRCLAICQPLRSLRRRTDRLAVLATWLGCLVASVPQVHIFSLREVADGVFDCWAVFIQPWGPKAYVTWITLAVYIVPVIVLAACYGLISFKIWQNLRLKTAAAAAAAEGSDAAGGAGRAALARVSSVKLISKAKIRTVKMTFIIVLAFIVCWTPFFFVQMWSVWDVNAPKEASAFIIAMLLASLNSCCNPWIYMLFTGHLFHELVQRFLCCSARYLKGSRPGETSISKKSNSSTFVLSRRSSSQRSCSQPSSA

[9] = system: P19 cells; assay: Rhodamine123 retention in P19 cultures; assay type: cell-based, mouse; conditions: day 10 of differentiation, p<0.001
Description: For morphological examination, cells were grown directly onto the plastic surface of tissue culture vessels. For staining with rhodamine^123 (Sigma), day-4 aggregates were distributed in 24-well culture plates and grown until day 8. Then, dye was added to the culture medium at a final concentration of 1 μg/ml for 45 min, and afterwards, the cells were washed extensively with phosphate-buffered saline (PBS) and cultured for 48 h in the absence of the dye. Dye retained by cells in each well was measured by a fluorescence microplate reader (SPECTRA Max Gemini®, Molecular Devices, Sunnyvale, Calif.) at 505 nm for excitation and 534 nm for emission.

Compound: C[S+](C)[O-] [DMSO]
day by which beating cell colonies were present in all 24 independently growing cultures [1]: 12 days
efficiency of cardiac differentiation ([2]; DMSO-induced): ≤ 15%
OTR expression (protein and mRNA) after treatment ([3]; day 14): increased OTR expression
ANP mRNA level compared to undifferentiated cells [4]: at similar level
MHC and DHPR-alphal immunoreactive foci [5]: numerous, intense, immunoreactive foci
reduction of mean aggregate diameter versus untreated counterparts [6]: 1.5 fold
OT release by induced P19 cells [7]: release OT in their culture medium

production of beating cell colonies (P19 cardiomyocyte differentiation, 24-well plate) [8]: 24
Compound: oxytocin (from UniProt P01178 20-28) (peptide)

Compound: [d(CH2)5^1,Tyr(Me)^2,Thr^4,Orn^8,Tyr-NH2^9]-vasotocin [OTA]
effect of OTA on T3-induced cardiac differentiation ([1]; 30 nM T3 + 10^−7 M OTA): abolished cardiac differentiation induced by T3; also recorded: completely inhibits P19 cell differentiation into cardiomyocytes
effect of OTA on DMSO-induced cardiac differentiation (beating cell colonies) ([1]; 10^−7 M OTA + 0.5% DMSO): abolished the cardiogenic action of DMSO; also recorded: completely inhibits P19 cell differentiation into cardiomyocytes
beating cells with OTA in combination with OT ([1]; 10^−7 M OTA + 10^−7 M OT): no beating cells were seen
beating cells with OTA in place of OT ([1]; 10^−7 M OTA alone): no beating cells were seen
effect of OTA on RA-induced cardiac differentiation ([1]; RA 10^−7 M + OTA 10^−7 M): completely inhibits RA-induced cardiac differentiation; also recorded: completely inhibits P19 cell differentiation into cardiomyocytes
effect of OTA on OT-induced OTR upregulation ([3]; OT 10^−7 M + OTA 10^−7 M, day 14): inhibited OT-induced OTR upregulation
OTR expression (protein and mRNA) after treatment ([3]; day 14): did not upregulate OTR expression by itself
early OTR induction (RT-PCR) [3]: no effect on OTR expression
effect of OTA on DMSO-induced ANP expression ([4]; DMSO + OTA day 0-4, day 14): not statistically significant
effect of OTA on OT-induced ANP expression ([4]; OT + OTA day 0-4, day 14, p<0.05): prevented OT-induced upregulation of ANP expression

Compound: N[C@@H](Cc1cc(I)c(Oc2ccc(O)c(I)c2)c(I)c1)C(=O)O [T3, triiodothyronine]
optimal effective concentration for cardiomyogenic differentiation of P19 cells ([2]; Rodriguez et al., 1994): 30 nM

Compound: oxytocin [OT]
OT concentration range over which differentiation into beating cardiomyocytes is concentration-dependent ([1]; 4 days of aggregation with different OT concentrations): 10^−6 to 10^−9 M
formation of rhythmically-beating cells ([1]; P19 cell aggregates treated day 0-4 with 10^−7 M OT): induced the formation of rhythmically-beating cells
day by which beating cell colonies were present in all 24 independently growing cultures [1]: 8 days
cardiac differentiation at the OT concentration supplied by serum in culture medium ([1]; final OT concentration of 10^−12 M): not sufficient to induce cardiac differentiation
OTR expression (protein and mRNA) after treatment ([3]; day 14): increased OTR expression
OTR mRNA expression versus OT concentration ([3]; differentiated populations at day 14): concentration-dependent
early OTR induction (RT-PCR) [3]: most potent OTR inducer
ANP mRNA level compared to undifferentiated cells [4]: significantly upregulated
MHC and DHPR-alphal immunoreactive foci [5]: numerous, intense, immunoreactive foci
6-day versus 4-day OT treatment of aggregates (myocyte immunological markers) ([5]; not presented): no difference with the 4-day treatment
reduction of mean aggregate diameter versus untreated counterparts [6]: 1.5 fold
OT release by induced P19 cells [7]: release OT in their culture medium
rhodamine123 retention, OT compared with DMSO [9]: significantly higher after OT than DMSO treatment
